# Laboratory results from US20190125790A1, “USE OF HYPOCHLOROUS ACID AS A TOPICAL ANTIMICROBIAL” (BIIOSMART TECHNOLOGIES LLC, priority 2016, published 2019).
# Experiments:
# Staphylococcus aureus = assay: Antimicrobial efficacy of HOCl skin cleanser (Table 1); assay type: cell-based; details: 0.01% HOCl; 30 seconds
# [1] = tested on: Staphylococcus epidermidis; assay: as above; assay type: cell-based; details: 0.01% HOCl; 30 seconds
# Salmonella enteritidis = assay: as above; assay type: cell-based; details: 0.01% HOCl; 30 seconds
# Escherichia coli = assay: as above; assay type: cell-based; details: 0.01% HOCl; 30 seconds
# Klebsiella oxytoca = assay: as above; assay type: cell-based; details: 0.01% HOCl; 30 seconds
# Candida albicans [2] = assay: as above; assay type: cell-based; details: 0.01% HOCl; 30 seconds
# HIV (non-glp) = assay: as above; assay type: cell-based; details: 0.01% HOCl; 30 seconds
# Herpes simplex virus = assay: as above; assay type: cell-based; details: 0.01% HOCl; 30 seconds
# Human Papillomavirus = assay: Efficacy at 30 seconds (Table 2); assay type: cell-based; details: 0.01 to 0.05% aqueous solution
# K. pneumoniae = assay: Efficacy at 30 seconds (Table 2); assay type: cell-based; details: 0.01 to 0.05% aqueous solution
# MRSA = assay: Efficacy at 30 seconds (Table 2); assay type: cell-based, methicillin-resistant staphylococcus aureus; details: 0.01 to 0.05% aqueous solution
# E. coli NDM-1 = assay: Efficacy at 30 seconds (Table 2); assay type: cell-based; details: 0.01 to 0.05% aqueous solution
# [3] = tested on: Trichophyton mentagrophytes; assay: Efficacy at 30 seconds (Table 2); assay type: cell-based; details: 0.01 to 0.05% aqueous solution
# S. pyogenes = assay: Efficacy at 30 seconds (Table 2); assay type: cell-based; details: 0.01 to 0.05% aqueous solution
# Candida albicans [4] = assay: ASTM E2315 Time Kill Assay for Antimicrobial Agents; assay type: cell-based; details: 0.046% HOCl aqueous solution; 30 seconds; high organic load
# Experimental: (§1) Table 3. below represents the efficacy of 0.046% aqueous hypochlorous acid solution in the presence of high organic load. ASTM E2315 Time Kill Assay for Antimicrobial Agents. The study was performed in ATS labs in Minnesota recommended by the U.S. FDA's Tentative Final Monograph for OTC Healthcare Antiseptic Drug. […] Additional times were evaluated: 1 minute, 5 minutes, and 10 minutes, all with and without organic soil (Using 10% whole milk and 5% Fetal Bovine Serum). The trend in the efficiency is maintained under the same proportions.
# E. faecium = assay: as above; assay type: cell-based; details: 0.046% HOCl aqueous solution; 30 seconds; high organic load
# Experimental: as §1
# Enterobacter aerogenes = assay: as above; assay type: cell-based; details: 0.046% HOCl aqueous solution; 30 seconds; high organic load
# Experimental: as §1
# K. oxytoca = assay: as above; assay type: cell-based; details: 0.046% HOCl aqueous solution; 30 seconds; high organic load
# Experimental: as §1
# K. pneumoniae NDM-1 = assay: as above; assay type: cell-based; details: 0.046% HOCl aqueous solution; 30 seconds; high organic load
# Experimental: as §1
# S. marcenscens = assay: as above; assay type: cell-based; details: 0.046% HOCl aqueous solution; 30 seconds; high organic load
# Experimental: as §1
# [5] = tested on: Herpes Simplex Virus type 2 (HSV-2); assay: Test of viral inactivation, ASTM E1052-96 viruses in suspension; assay type: cell-based; details: 0.04% HOCl aqueous solution; 30 seconds
# Acute Dermal Toxicity = assay type: in vivo; details: Albino New Zealand Rabbits, 0.05% HOCl solution, males and females
# Excerpt: (§2) Table 5. contains the results of several acute and sub-chronic toxicity tests.
# [6] = Acute Inhalation Toxicity; assay type: in vivo, Young Adult Wistar Rats
# Excerpt: as §2
# [7] = Sub. Chronic Toxicity. 90 days; assay type: in vivo
# Excerpt: as §2
# [8] = tested on: all microorganisms tested; assay: ASTM E2315 Time Kill Assay, summary of Table 3; assay type: cell-based; details: concentration of 0.046%, 30 seconds
# Experimental: as §1
# [9] = Absorption through intact skin; assay type: in vitro ADME; details: low concentrations of hypochlorous acid
# Excerpt: Thus, the potential for producing skin reactions is extremely low.
# [10] = Biocompatibility in treated patients; assay type: in vivo, human; details: 0.05% HOCl aqueous solution; over 20,000 patients treated
# Excerpt: The 0.05% HOCl concentration aqueous solution is biocompatible and found to have a high safety profile. Over 20,000 patients have been treated with the solution with zero reported cases of hypersensitivity. The solution is pH controlled for biocompatibility, formulated for use on sensitive mucous membrane areas of the body, is non-antibiotic, non-irritating, non-allergenic, non-invasive, and non-toxic. No adverse effects against cellular growth in the patient.
# [11] = Non-randomized study of skin ulcers, 822 patients; assay type: in vivo, human; details: 0.046% HOCl aqueous solution
# Experimental: A non-randomized, non-placebo controlled study involving 822 patients with a variety of ulcers was conducted. These patients were treated with HOCl aqueous solution (0.046%) as the only therapeutic intervention and followed the patients for six months to evaluate ulcer closure as a marker of therapeutic success.
# [12] = Fournier's gangrene patient case; assay type: in vivo, human; details: HOCl (0.046%) aqueous solution; one patient; four step surgical process; 24 hours period
# Experimental: A HOCl (0.046%) aqueous solution was preformed in a four step surgical process to a patient that was infected with Fournier's gangrene. Skin was removed from the infected area before administering the HOCl solution on the infected areas in a 24 hours period. Following application, skin graphs were placed over the surgical wound for rehabilitation process.
# E. coli = assay: Efficacy at 30 seconds (Table 2); details: 0.01 to 0.05% aqueous solution
structure (smiles),measurement,setting,value
"OCl [HOCl, hypochlorous acid]",% Reduction,Staphylococcus aureus,99.999%
same,Log Reduction,Staphylococcus aureus,>6.1 Log10
same,% Reduction,[1],99.999%
same,Log Reduction,[1],>5.8 Log10
same,% Reduction,Salmonella enteritidis,99.999%
same,Log Reduction,Salmonella enteritidis,>6.4 Log10
same,% Reduction,Escherichia coli,99.99%
same,Log Reduction,Escherichia coli,>6.59 Log10
same,% Reduction,Klebsiella oxytoca,99.99%
same,Log Reduction,Klebsiella oxytoca,>5.50 Log10
same,% Reduction,Candida albicans [2],99.99%
same,Log Reduction,Candida albicans [2],>5.98 Log10
same,% Reduction,HIV (non-glp),99.999%
same,Log Reduction,HIV (non-glp),>6.1 Log10
same,% Reduction,Herpes simplex virus,99.99%
same,Log Reduction,Herpes simplex virus,>5.8 Log10
same,% Reduction,Human Papillomavirus,99.999%
same,Log Reduction,Human Papillomavirus,>5.35 Log10
same,% Reduction,K. pneumoniae,99.999%
same,Log Reduction,K. pneumoniae,>5.46 Log10
same,% Reduction,MRSA,99.999%
same,Log Reduction,MRSA,>5.89 Log10
same,% Reduction,E. coli NDM-1,99.999%
same,Log Reduction,E. coli NDM-1,>5.47 Log10
same,% Reduction,[3],>99.99%
same,Log Reduction,[3],>4.92 Log10
same,% Reduction,S. pyogenes,>99.99%
same,Log Reduction,S. pyogenes,>4.97Log10
same,% Reduction,Candida albicans [4],99.999%
same,Log Reduction,Candida albicans [4],>5.19 Log10
same,% Reduction,E. faecium,99.999%
same,Log Reduction,E. faecium,>5.32 Log10
same,% Reduction,Enterobacter aerogenes,99.999%
same,Log Reduction,Enterobacter aerogenes,>5.90 Log10
same,% Reduction,K. oxytoca,99.999%
same,Log Reduction,K. oxytoca,>5.50 Log10
same,% Reduction,K. pneumoniae NDM-1,99.999%
same,Log Reduction,K. pneumoniae NDM-1,>5.59 Log10
same,% Reduction,S. marcenscens,99.999%
same,Log Reduction,S. marcenscens,>5.37 Log10
same,% Reduction,[5],99.9999%
same,Log Reduction,[5],7.53
same,Acute Lethal Dose,Acute Dermal Toxicity,> 5000 mg/kg body weight for males
same,survival after exposure to the test atmosphere,"[6]; Gravimetric Chamber concentration 2.07 mg/L of HOCl, Wistar Rats",Animals All animals survived
same,LC50,"[6]; both sexes, Wistar, rat, in vivo, 2.07 mg/L, male and female rats",> 2.07 mg/L
same,mortalities,"[7]; 90 days, 1000 mg/Kg Body weight, Wistar Rats","No mortalities, considered"
same,toxicity assessment,"[7]; rat, in vivo, 1000 mg/kg",non-toxic
same,efficacy,[8],99.999%
same,absorption of the compound through intact skin,[9],no evidence of absorption of the compound through intact skin
same,reported cases of hypersensitivity,[10],zero
same,interference with antibiotics administered orally,[11],No interference with antibiotics administered orally
same,local infection rate for all ulcers,[11],Decreased the local infection rate for all ulcers
same,closing index for venous ulcers,[11]; at 6 months,97%
same,closure of mixed ulcers,[11]; even when a surgical procedure was required,≤ 75%
same,recurrence rate,[11]; ulcers,2.7 % a year
same,outcome in Fournier's gangrene,[12],prevention of further spread of the disease as well as prevention of amputation and additional complications
same,Log Reduction,E. coli,>5.87 Log10
